pIC50: −log10 of the molar value.
What follows are compounds tested against Epidermal growth factor receptor (Homo sapiens, UniProt P00533) (assay: Displacement of [gamma-32P]-ATP from Epidermal growth factor receptor in A431 cell-free extracts).
Epidermal growth factor receptor, sequence (P00533 whole entry): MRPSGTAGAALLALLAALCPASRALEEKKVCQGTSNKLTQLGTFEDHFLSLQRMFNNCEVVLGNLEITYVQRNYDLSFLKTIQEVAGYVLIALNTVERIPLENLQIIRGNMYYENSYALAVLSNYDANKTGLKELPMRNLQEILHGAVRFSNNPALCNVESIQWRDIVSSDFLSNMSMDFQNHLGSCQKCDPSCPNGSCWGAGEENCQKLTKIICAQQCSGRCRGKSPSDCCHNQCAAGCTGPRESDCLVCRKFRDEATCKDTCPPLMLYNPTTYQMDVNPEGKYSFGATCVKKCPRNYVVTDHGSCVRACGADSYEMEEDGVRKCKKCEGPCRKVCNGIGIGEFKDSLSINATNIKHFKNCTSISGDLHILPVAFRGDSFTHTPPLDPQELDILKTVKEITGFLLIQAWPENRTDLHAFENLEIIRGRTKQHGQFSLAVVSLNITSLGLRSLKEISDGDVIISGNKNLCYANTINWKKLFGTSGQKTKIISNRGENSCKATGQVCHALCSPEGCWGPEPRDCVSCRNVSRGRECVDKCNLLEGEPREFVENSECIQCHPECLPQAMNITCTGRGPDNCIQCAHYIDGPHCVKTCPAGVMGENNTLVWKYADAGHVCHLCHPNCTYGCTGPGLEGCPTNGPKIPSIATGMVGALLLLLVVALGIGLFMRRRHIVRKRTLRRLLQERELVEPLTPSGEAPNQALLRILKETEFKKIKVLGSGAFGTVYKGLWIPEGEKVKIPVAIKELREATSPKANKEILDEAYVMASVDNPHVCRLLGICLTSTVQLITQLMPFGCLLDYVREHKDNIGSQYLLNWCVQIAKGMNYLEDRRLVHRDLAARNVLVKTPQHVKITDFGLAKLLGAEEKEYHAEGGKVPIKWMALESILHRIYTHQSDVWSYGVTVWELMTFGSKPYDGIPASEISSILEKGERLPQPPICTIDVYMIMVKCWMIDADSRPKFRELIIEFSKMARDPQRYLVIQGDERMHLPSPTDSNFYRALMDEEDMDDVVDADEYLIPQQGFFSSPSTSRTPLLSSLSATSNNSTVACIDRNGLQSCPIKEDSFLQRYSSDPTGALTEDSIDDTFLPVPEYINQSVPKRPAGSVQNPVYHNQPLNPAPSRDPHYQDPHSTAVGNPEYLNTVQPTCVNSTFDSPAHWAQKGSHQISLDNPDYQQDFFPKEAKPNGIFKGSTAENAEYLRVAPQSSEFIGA
Set-up: species or system A-431
Work on `CNC(=O)c1cc(NCc2cc(O)ccc2O)ccc1O` yielded a pIC50 of 5.01. In the case of `CCCCCCNC(=O)c1cc(NCc2cc(O)ccc2O)ccc1O`, the pIC50 was 6.05. `CCCCCCCCCCCCCCNC(=O)c1cc(NCc2cc(O)ccc2O)ccc1O` gave a pIC50 of 4.57. `O=S(=O)(O)c1cc(NCc2cc(O)ccc2O)ccc1O` was tested, and the pIC50 was 4.99. Compound `O=[N+]([O-])c1cc(NCc2cc(O)ccc2O)ccc1O` has a pIC50 of 5.27. `Oc1ccc(NCc2cc(O)ccc2O)cc1` was tested, and the pIC50 was 4.38.

Reference: ChEMBL document CHEMBL1159167, “Synthesis and biological activity of 5-[(2,5-dihydroxybenzyl)amino]salicylic acid analogs as inhibitors of EGF receptor-associated protein tyrosine kinase” (Bioorg Med Chem Lett, 1997)
